Results from patent publication US20040010001A1, “Methods and compositions for modulating cell proliferation and cell death” (priority 1999, published 2004).
pIC50: −log10 of the molar value. Where a name gives a salt, the structure may show the parent alone. Read-outs that look alike come from different tables or passages of the source.

Test system: Human prostate PC3 tumor cells
Experiment: aFGF/bFGF-induced resistance and reversal by suramin, sulforhodamine B assay
Format: cell-based
Description: The experimental conditions are described briefly below. […] Cell number was measured using the sulforhodamine B assay which measures the total protein concentration. […] The FGF-induced resistance was dependent on the FGF concentrations, with a higher resistance at higher FGF concentrations.

[1] = Homo sapiens, read-out: IC50, Control (drug treatment only, without FGF treatment), No suramin, drug 96 hours
[2] = Homo sapiens, read-out: IC50, aFGF 0.3 ng/ml + bFGF 1 ng/ml, No suramin, FGF pretreatment 96 hours, drug 96 hours
[3] = Homo sapiens, read-out: IC50, aFGF 1 ng/ml + bFGF 3 ng/ml, No suramin, FGF pretreatment 96 hours, drug 96 hours
[4] = no suramin, relative to control
[5] = read-out: IC50, Control (without FGF treatment), Suramin, 15 μM, drug 96 hours with 15 μM suramin
[6] = read-out: IC50, aFGF 0.3 ng/ml + bFGF 1 ng/ml, With suramin, FGF pretreatment 96 hours, drug 96 hours with 15 micromolar suramin
[7] = read-out: IC50, aFGF 1 ng/ml + bFGF 3 ng/ml, With suramin, FGF pretreatment 96 hours, drug 96 hours with 15 micromolar suramin
[8] = Homo sapiens, 96 h, read-out: IC50, Control (drug treatment only, without FGF treatment), No suramin
[9] = Homo sapiens, 96 h, read-out: IC50, aFGF 0.3 ng/ml + bFGF 1 ng/ml, No suramin
[10] = Homo sapiens, 96 h, read-out: IC50, aFGF 1 ng/ml + bFGF 3 ng/ml, No suramin
[11] = read-out: IC50, Control (without FGF treatment), Suramin, 15 μM
[12] = read-out: IC50, aFGF 0.3 ng/ml + bFGF 1 ng/ml, With suramin
[13] = read-out: IC50, aFGF 1 ng/ml + bFGF 3 ng/ml, With suramin
[14] = read-out: IC50, Control (drug treatment only, without FGF treatment), No suramin, drug 96 hours
[15] = read-out: IC50, aFGF 0.3 ng/ml + bFGF 1 ng/ml, No suramin, FGF pretreatment 96 hours, drug 96 hours
[16] = read-out: IC50, aFGF 1 ng/ml + bFGF 3 ng/ml, No suramin, FGF pretreatment 96 hours, drug 96 hours

Compound | pIC50 [1] | pIC50 [2] | pIC50 [3] | Resistance, Folds, aFGF 0.3 ng/ml + bFGF 1 ng/ml [4] [Folds] | Resistance, Folds, aFGF 1 ng/ml + bFGF 3 ng/ml [4] [Folds] | pIC50 [5] | pIC50 [6] | pIC50 [7] | Resistance, Folds, aFGF 0.3 ng/ml + bFGF 1 ng/ml [Folds] | Resistance, Folds, aFGF 1 ng/ml + bFGF 3 ng/ml [Folds] | pIC50 [8] | pIC50 [9] | pIC50 [10] | pIC50 [11] | pIC50 [12] | pIC50 [13] | pIC50 [14] | pIC50 [15] | pIC50 [16]
COc1cccc2c1C(=O)c1c(O)c3c(c(O)c1C2=O)C[C@@](O)(C(C)=O)C[C@@H]3O[C@H]1C[C@H](N)[C@H](O)[C@H](C)O1 [Daunorubicin] | 7.53 | 7.01 | 6.80 | 3.31 | 5.33 | 7.54 | 7.58 | 7.52 | – | – | – | – | – | – | – | – | – | – | –
CN(C)/N=N/c1[nH]cnc1C(N)=O [Dacarbazine] | 4.44 | 4.27 | 3.97 | 1.47 | 2.95 | 4.42 | 4.49 | 4.40 | – | – | – | – | – | – | – | – | – | – | –
O=C1NC2(CCCCC2)C(=O)N1CCN(CCCl)CCCl [Spiromustine] | – | – | – | – | – | – | – | – | 2.15 | 3.46 | 4.60 | 4.26 | 4.06 | 4.61 | 4.59 | 4.57 | – | – | –
CC[C@]1(O)C[C@H]2CN(CCc3c([nH]c4ccccc34)[C@@](C(=O)OC)(c3cc4c(cc3OC)N(C=O)[C@H]3[C@@](O)(C(=O)OC)[C@H](OC(C)=O)[C@]5(CC)C=CCN6CC[C@]43[C@@H]65)C2)C1 [Vincristine] | 8.18 | – | – | 4.00 | 6.77 | 8.17 | – | – | – | – | – | – | – | – | – | – | – | – | –
COc1cccc2c1C(=O)c1c(O)c3c(c(O)c1C2=O)C[C@@](O)(C(=O)CO)C[C@@H]3O[C@H]1C[C@H](N)[C@@H](O)[C@H](C)O1 [Epirubicin] | 6.99 | 6.78 | 6.55 | 1.63 | 2.75 | 6.92 | 6.91 | 6.86 | – | – | – | – | – | – | – | – | – | – | –
O=C1c2c(O)ccc(O)c2C(=O)c2c(NCCNCCO)ccc(NCCNCCO)c21 [Mitoxantrone] | 6.74 | 6.48 | 6.28 | 1.83 | 2.94 | 6.80 | – | – | – | – | – | – | – | – | – | – | – | – | –
O=C1NC(=S)NC(=O)C1C(=O)Nc1ccccc1 [Merbarone] | 4.64 | 4.33 | 4.09 | 1.67 | 2.89 | 4.54 | 4.60 | 4.53 | – | – | – | – | – | – | – | – | – | – | –
CO[C@@]12[C@H](COC(N)=O)C3=C(C(=O)C(C)=C(N)C3=O)N1C[C@@H]1N[C@@H]12 [Mitomycin C] | 5.79 | 5.51 | 5.33 | – | – | 5.82 | 5.77 | 5.80 | – | – | – | – | – | – | – | – | – | – | –
Nc1ncnc2c1ncn2[C@@H]1O[C@H](CO)[C@@H](O)[C@@H]1O [Adenosine arabinoside (Ara-A), Adenosine arabinoside] | – | – | – | 1.56 | 2.13 | 4.64 | 4.72 | 4.68 | – | – | – | – | – | – | – | – | 4.67 | 4.47 | 4.34
Sc1ncnc2nc[nH]c12 [6-Mercaptopurine] | 5.80 | 5.52 | 5.26 | 1.90 | 3.50 | 5.78 | 5.77 | 5.81 | – | – | – | – | – | – | – | – | – | – | –
CC(=O)O[C@@]12CO[C@@H]1C[C@H](O)[C@@]1(C)C(=O)[C@H](O)C3=C(C)[C@@H](OC(=O)[C@H](O)[C@@H](NC(=O)OC(C)(C)C)c4ccccc4)C[C@@](O)([C@@H](OC(=O)c4ccccc4)[C@H]21)C3(C)C [Taxotere] | 8.64 | – | – | – | – | 8.69 | – | – | – | – | – | – | – | – | – | – | – | – | –
Nc1nc(Cl)nc2c1ncn2[C@H]1C[C@H](O)[C@@H](CO)O1 [Cladribine] | 6.46 | 6.34 | 6.19 | 1.31 | 1.86 | 6.44 | – | 6.47 | – | – | – | – | – | – | – | – | – | – | –
O=C(O)CCCc1ccc(N(CCCl)CCCl)cc1 [Chlorambucil] | 4.50 | 4.27 | 4.05 | 1.67 | 2.77 | 4.48 | 4.35 | 4.43 | – | – | – | – | – | – | – | – | – | – | –
O=C(O)CC(NC(=O)CP(=O)(O)O)C(=O)O [PALA, N-Phosphoracetyl-L-Asparate] | – | – | – | – | – | – | – | – | 1.06 | 1.21 | 3.62 | 3.59 | 3.54 | 3.60 | 3.63 | 3.70 | – | – | –
C/C=C1\NC(=O)[C@H]2CSSCC/C=C/[C@H](CC(=O)N[C@H](C(C)C)C(=O)N2)OC(=O)[C@H](C(C)C)NC1=O [Depsipeptide] | 8.95 | 8.81 | 8.67 | 1.38 | 1.93 | 8.99 | 8.94 | 8.94 | – | – | – | – | – | – | – | – | – | – | –
S=P(N1CC1)(N1CC1)N1CC1 [Thiotepa] | – | – | – | – | – | – | – | – | 4.96 | 8.61 | 5.41 | 4.72 | 4.48 | 5.39 | 5.39 | 5.38 | – | – | –
Nc1ccn([C@@H]2O[C@H](CO)[C@@H](O)C2(F)F)c(=O)n1 [Gemcitabine] | 8.16 | 8.02 | 7.88 | 1.41 | 1.91 | 8.16 | 8.21 | 8.22 | – | – | – | – | – | – | – | – | – | – | –
NCCCNc1ccc2c3c(nn2CCNCCO)-c2c(O)ccc(O)c2C(=O)c13 [Piroxantrone Hydrochloride] | 6.47 | 6.09 | 5.89 | 2.38 | 3.77 | 6.49 | 6.48 | 6.55 | – | – | – | – | – | – | – | – | – | – | –
O=c1[nH]c(=O)n([C@H]2C[C@H](O)[C@@H](CO)O2)cc1F [5-fluorodoeoxyuridine] | 8.23 | 8.04 | 7.91 | 1.54 | 2.09 | 8.15 | 8.18 | 8.24 | – | – | – | – | – | – | – | – | – | – | –
NC(=O)c1[nH]nc([C@@H]2O[C@H](CO)[C@@H](O)[C@H]2O)c1O [Pyrazofurin] | 5.47 | 5.39 | 4.96 | 1.20 | 3.27 | 5.42 | 5.44 | 5.42 | – | – | – | – | – | – | – | – | – | – | –
COc1cc(NCc2ccc3nc(N)nc(N)c3c2C)cc(OC)c1OC [Trimetrexate] | 7.47 | 7.27 | 7.02 | 1.61 | 2.85 | 7.48 | 7.51 | 7.54 | – | – | – | – | – | – | – | – | – | – | –
O=P1(NCCCl)OCCCN1CCCl (stereo not drawn) [Ifosfamide] | 5.58 | 5.30 | 5.09 | 1.88 | 3.05 | 5.65 | 5.65 | 5.59 | – | – | – | – | – | – | – | – | – | – | –
Oc1ncc(N(CCCl)CCCl)c(O)n1 [Uracil Mustard] | – | – | – | – | – | – | – | – | 1.41 | 2.24 | 4.52 | 4.37 | 4.17 | 4.42 | 4.42 | 4.46 | – | – | –
CC(O)CCC(=O)c1ccoc1 (stereo not drawn) [4-Ipomeanol] | – | – | – | 0.92 | 1.25 | 2.35 | 2.30 | 2.41 | – | – | – | – | – | – | – | – | 2.39 | 2.42 | 2.29
CS(=O)(=O)OCCCCOS(C)(=O)=O [Busulfan] | 4.06 | – | – | 1.14 | 1.48 | 4.05 | – | – | – | – | – | – | – | – | – | – | – | – | –
Dihydrolenperone | – | – | – | 1.81 | 3.37 | 4.55 | 4.58 | 4.62 | – | – | – | – | – | – | – | – | 4.61 | 4.35 | 4.08
